Like-named read-outs stand apart in the source and are kept apart here. Where a SMILES comes first, the peptide text is derived from it. [ ]: non-standard residue; d: D form. Nle = CCCC[C@H](N)C(=O)O
Columns and labels:
Type in all cases: biochemical
[1] = biological target: T1, yeast proteasome β1/β1' (PGPH) (Saccharomyces cerevisiae, UniProt P38624); assay: Proteasome assay, PGPH activity (fluorogenic substrate Z-Leu-Leu-Gly-βNA); conditions: 6.67 nM proteasome, Tris-buffer pH 7.5, incubated with inhibitor 1 h at 37°C, Z-Leu-Leu-Gly-βNA 40 µM, read-out: Inhibition of yeast proteasome (IC50) β1/β1'
Description: (§1) A solution of proteasome from Saccharomyces cerivisiae in Tris-buffer (pH 7.5; 450 µl; 6.67 nM for PGPH, 5.56 nM for trypsin-like and 1.11 nM for chymotrypsin-like activity) was incubated with the inhibitors at varying concentrations ([…]) for 1 h at 37°C. The fluorogenic substrates for PGPH (Z-Leu-Leu-Gly-βNA, 40 µM), trypsin-like (Bz-Phe-Val-Arg-AMC, 8 µM) and chymotrypsin-like assays (Suc-Leu-Leu-Val-Tyr-AMC, 8 µM) were dissolved in the same Tris-buffer with a minimum amount of DMSO and added to the enzyme solution at 37 °C to reach a final volume of 500 µl. Fluorescence excitation/emission wavelengths were 360 nm/460 nm for AMC and 335 nm/410 nm for βNA. The rates of hydrolysis were monitored by the fluorescence increase and the initial linear portions of curves (100-300 sec) were used to calculate the IC50 values.

[2] = biological target: T2, yeast proteasome β2/β2' (trypsin-like activity) (Saccharomyces cerevisiae, UniProt P25043); assay: Proteasome assay, trypsin-like activity (fluorogenic substrate Bz-Phe-Val-Arg-AMC); design: Three of the seven different β-type subunits are processed at the threonine-1 residue; conditions: 5.56 nM proteasome, Tris-buffer pH 7.5, incubated with inhibitor 1 h at 37°C, Bz-Phe-Val-Arg-AMC 8 µM, read-out: Inhibition of yeast proteasome (IC50) β2/β2'
Description: as §1

[3] = biological target: T3, yeast proteasome β5/β5' (chymotrypsin-like activity) (Saccharomyces cerevisiae, UniProt P30656); assay: Proteasome assay, chymotrypsin-like activity (fluorogenic substrate Suc-Leu-Leu-Val-Tyr-AMC); design: Three of the seven different β-type subunits are processed at the threonine-1 residue; conditions: 1.11 nM proteasome, Tris-buffer pH 7.5, incubated with inhibitor 1 h at 37°C, Suc-Leu-Leu-Val-Tyr-AMC 8 µM, read-out: Inhibition of yeast proteasome (IC50) β5/β5'
Description: as §1

[4] = biological target: T1, yeast proteasome β1/β1' (PGPH); assay: Proteasome assay, PGPH activity (fluorogenic substrate Z-Leu-Leu-Gly-βNA); design: endogenous in cells; host or cells: Saccharomyces cerevisiae (isolated native complex; purification, strain and supplier not described); conditions: 6.67 nM proteasome, Tris-buffer pH 7.5, incubated with inhibitor 1 h at 37°C, Z-Leu-Leu-Gly-βNA 40 µM, read-out: Inhibition of yeast proteasome (IC50) β1/β1'
Description: as §1

[5] = biological target: T2, yeast proteasome β2/β2' (trypsin-like activity); assay: Proteasome assay, trypsin-like activity (fluorogenic substrate Bz-Phe-Val-Arg-AMC); design: endogenous in cells; host or cells: Saccharomyces cerevisiae (isolated native complex; purification, strain and supplier not described); conditions: 5.56 nM proteasome, Tris-buffer pH 7.5, incubated with inhibitor 1 h at 37°C, Bz-Phe-Val-Arg-AMC 8 µM, read-out: Inhibition of yeast proteasome (IC50) β2/β2'
Description: as §1

[6] = biological target: T3, yeast proteasome β5/β5' (chymotrypsin-like activity); assay: Proteasome assay, chymotrypsin-like activity (fluorogenic substrate Suc-Leu-Leu-Val-Tyr-AMC); design: endogenous in cells; host or cells: Saccharomyces cerevisiae (isolated native complex; purification, strain and supplier not described); conditions: for IC50: chymotrypsin-like activity, 1.11 nM proteasome, Tris-buffer pH 7.5, incubated with inhibitor 1 h at 37°C, Suc-Leu-Leu-Val-Tyr-AMC 8 µM, read-out: Inhibition of yeast proteasome (IC50) β5/β5'
Description: as §1

Row | Compound | IC50 [1] | IC50 [2] | IC50 [3] | IC50 [4] | IC50 [5] | IC50 [6] | increase in binding affinity ([6]; chymotryptic activity, compared to inhibitor 1 or to the monovalent inhibitor 2)
1 | CCCC[C@@H](C=O)NC(=O)[C@H](CC(C)C)NC(=O)[C@H](CC(C)C)NC(C)=O [Inhibitor 1, Ac-Leu-Leu-Nle-H] (Ac-Leu-Leu-[Nle]-aldehyde) | > 100 µM | > 100 µM | 2.1 µM | – | – | – | –
2 | (PEG)18-25-[NH-CO-(CH2)2-CO-Leu-Leu-Nle-H]2 [Inhibitor 3] | – | – | – | > 100 µM | > 100 µM | 0.017 µM | about two orders of magnitude
3 | HOOC-(CH2)2-CO-NH-(PEG)18-25-NH-(CH2)2-CO-Leu-Leu-Nle-H [Inhibitor 2] | – | – | – | > 100 µM | > 100 µM | 1.8 µM | –

— EP0982317A1, “Bivalent inhibitors of the proteasome” (Max-Planck-Gesellschaft zur Förderung der Wissenschaften …, priority 1998, dated 2000)
